Test results reported in ChEMBL document CHEMBL5512620, “Design and synthesis of forsythin derivatives as anti-inflammatory agents for acute lung injury” (Eur J Med Chem, 2024).
Values belong to the compound of their own block, whether it stands above or below them. Calls of active or inactive are those of the source. No cut-off for these calls is given here.

What was measured:
[1] = target: Transcription factor p65 (Mus musculus) (UniProt Q04207); test: Inhibition of NF-kappaB p65 phosphorylation in mouse RAW264.7 cells at 6.25 to 25 uM pretreated with compound for 1 hr followed by LPS-induction and measured after 24 hrs by Western blot analysis; assay type: cell-based; conditions: dose 6.25-25 µM, time 25.0 hrs
Transcription factor p65 (Mus musculus), sequence (Q04207 whole entry): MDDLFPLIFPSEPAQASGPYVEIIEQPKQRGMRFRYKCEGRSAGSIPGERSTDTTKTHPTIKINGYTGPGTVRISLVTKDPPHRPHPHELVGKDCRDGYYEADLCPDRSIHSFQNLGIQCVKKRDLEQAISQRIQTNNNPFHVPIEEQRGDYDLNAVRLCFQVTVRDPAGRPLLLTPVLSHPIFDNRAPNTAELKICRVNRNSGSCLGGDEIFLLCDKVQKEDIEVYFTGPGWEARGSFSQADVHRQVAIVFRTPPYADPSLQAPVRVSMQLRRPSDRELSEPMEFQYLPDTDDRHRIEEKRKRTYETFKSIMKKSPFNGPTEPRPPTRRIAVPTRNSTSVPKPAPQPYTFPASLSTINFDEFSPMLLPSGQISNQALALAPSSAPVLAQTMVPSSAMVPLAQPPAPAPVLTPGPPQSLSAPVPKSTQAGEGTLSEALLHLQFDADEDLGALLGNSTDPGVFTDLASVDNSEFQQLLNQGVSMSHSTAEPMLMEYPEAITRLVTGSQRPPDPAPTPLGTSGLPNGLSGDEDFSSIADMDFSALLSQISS

[2] = system: Mus musculus; test: Antiinflammatory activity in LPS-induced acute lung injury BALB/c mouse model assessed as downregulation of IL-6 level in BALF at 5 to 20 mg/kg, po administered for 3 days followed by LPS-induction for 1 hr and measured after 6 hrs by ELISA analysis; assay type: functional, organism-based; conditions: dose 5-20 mg/kg, time 79.0 hrs
[3] = system: RAW264.7; test: Inhibition of IkappaB phosphorylation in mouse RAW264.7 cells at 6.25 to 25 uM pretreated with compound for 1 hr followed by LPS-induction and measured after 24 hrs by Western blot analysis; assay type: cell-based; conditions: dose 6.25-25 µM, time 25.0 hrs
[4] = system: RAW264.7; test: Anti-inflammatory activity in mouse RAW264.7 cells assessed as inhibition of LPS-induced COX-2 […] expression at 25 uM preincubated with compound for 1 hr followed by LPS stimulation and measured after 24 hrs by Western blot analysis; assay type: functional, cell-based; conditions: time 25.0 hrs
[5] = system: RAW264.7; test: Antiinflammatory activity in mouse RAW264.7 cells assessed as reduction in LPS-induced ERK phosphorylation at 6.25 to 25 uM preincubated with compound for 1 hr followed by LPS-induction and measured after 24 hrs by Western blot analysis; assay type: functional, cell-based; conditions: dose 6.25-25 µM, time 25.0 hrs
[6] = system: Mus musculus; test: Antiinflammatory activity in LPS-induced acute lung injury BALB/c mouse model assessed as reduction in NO production in BALF at 20 mg/kg, po administered for 3 days followed by LPS-induction for 1 hr and measured after 6 hrs by Griess reagent based analysis; assay type: functional, organism-based; conditions: time 79.0 hrs
[7] = system: RAW264.7; test: Cytotoxicity activity mouse RAW264.7 cells assessed as effect on cell viability at 25 uM incubated for 24 hrs by MTT assay; assay type: toxicity, cell-based; conditions: raw264.7, 24 h
[8] = system: Mus musculus; test: Antiinflammatory activity in LPS-induced po dosed acute lung injury BALB/c mouse model assessed as inhibition of iNOS expression administered for 3 days followed by LPS-induction for 1 hr and measured after 6 hrs by Western blot analysis; assay type: functional, organism-based; conditions: dose 5-20 mg/kg, time 79.0 hrs
[9] = system: Mus musculus; test: Antiinflammatory activity in LPS-induced po dosed acute lung injury BALB/c mouse model assessed as inhibition of COX-2 expression administered for 3 days followed by LPS-induction for 1 hr and measured after 6 hrs by Western blot analysis; assay type: functional, organism-based; conditions: dose 5-20 mg/kg, time 79.0 hrs
[10] = system: RAW264.7; test: Inhibition of NF-kappaB signaling pathway in LPS-induced mouse RAW264.7 cells assessed as reduction in phosphorylated IkappaB to IkappaB relative expression at 6.25 to 25 uM pretreated with compound for 1 hr followed by LPS-induction and measured after 24 hrs by Western blot analysis; assay type: cell-based; conditions: dose 6.25-25 µM, time 25.0 hrs
[11] = system: Mus musculus; test: Antiinflammatory activity in LPS-induced acute lung injury BALB/c mouse model assessed as improvement in alveolar structure at 20 mg/kg, po administered for 3 days followed by LPS-induction for 1 hr and measured after 6 hrs by H and E staining based analysis; assay type: functional, organism-based; conditions: time 79.0 hrs
[12] = system: Mus musculus; test: Antiinflammatory activity in LPS-induced acute lung injury BALB/c mouse model assessed as reduction in lung edema at 20 mg/kg, po administered for 3 days followed by LPS-induction for 1 hr and measured after 6 hrs by H and E staining based analysis; assay type: functional, organism-based; conditions: time 79.0 hrs
[13] = system: RAW264.7; test: Antiinflammatory activity in mouse RAW264.7 cells assessed as inhibition of LPS-induced IL-6 production at 25 uM preincubated with compound for 1 hr followed by LPS-induction and measured after 24 hrs by ELISA analysis relative to control; assay type: functional; conditions: time 25 hrs
[14] = system: RAW264.7; test: Antiinflammatory activity in mouse RAW264.7 cells assessed as reduction in LPS-induced IL-6 production preincubated with compound for 1 hr followed by LPS-induction and measured after 24 hrs by ELISA analysis relative to control; assay type: functional, cell-based
[15] = system: RAW264.7; test: Antiinflammatory activity in mouse RAW264.7 cells assessed as inhibition of LPS-induced IL-6 release at 25 uM preincubated with compound for 1 hr followed by LPS-induction and measured after 24 hrs by ELISA analysis; assay type: functional, cell-based; conditions: time 25.0 hrs
[16] = system: Mus musculus; test: Antiinflammatory activity in LPS-induced acute lung injury BALB/c mouse model assessed as reduction in W/D weight gain ratio in lung at 5 to 20 mg/kg, po administered for 3 days followed by LPS-induction for 1 hr and measured after 6 hrs; assay type: functional, organism-based; conditions: dose 5-20 mg/kg, time 79.0 hrs
[17] = target: Transcription factor p65 (Mus musculus) (UniProt Q04207); test: Inhibition of NF-kappaB signaling pathway in LPS-induced mouse RAW264.7 cells assessed as reduction in phosphorylated NF-kappaB to p65 relative expression at 6.25 to 25 uM pretreated with compound for 1 hr followed by LPS-induction and measured after 24 hrs by Western blot analysis; assay type: cell-based; conditions: dose 6.25-25 µM, time 25.0 hrs
[18] = system: Mus musculus; test: Antiinflammatory activity in LPS-induced acute lung injury BALB/c mouse model assessed as reduction in NO production in BALF at 5 to 20 mg/kg, po administered for 3 days followed by LPS-induction for 1 hr and measured after 6 hrs by Griess reagent based analysis; assay type: functional, organism-based; conditions: dose 5-20 mg/kg, time 79.0 hrs
[19] = system: RAW264.7; test: Antiinflammatory activity in mouse RAW264.7 cells assessed as reduction in LPS-induced p38 phosphorylation at 6.25 to 25 uM preincubated with compound for 1 hr followed by LPS-induction and measured after 24 hrs by Western blot analysis; assay type: functional, cell-based; conditions: dose 6.25-25 µM, time 25.0 hrs
[20] = system: Mus musculus; test: Antiinflammatory activity in LPS-induced acute lung injury BALB/c mouse model assessed as downregulation of TNF-alpha level in BALF at 20 mg/kg, po administered for 3 days followed by LPS-induction for 1 hr and measured after 6 hrs by ELISA analysis; assay type: functional, organism-based; conditions: time 79.0 hrs
[21] = system: RAW264.7; test: Antiinflammatory activity in mouse RAW264.7 cells assessed as inhibition of LPS-induced IL-6 secretion by measuring fold change at 25 uM preincubated with compound for 1 hr followed by LPS-induction and measured after 24 hrs by ELISA analysis relative to Forsythin; assay type: functional; conditions: time 25 hrs
[22] = system: Mus musculus; test: Antiinflammatory activity in LPS-induced acute lung injury BALB/c mouse model assessed as downregulation of TNF-alpha level in BALF at 5 to 20 mg/kg, po administered for 3 days followed by LPS-induction for 1 hr and measured after 6 hrs by ELISA analysis; assay type: functional, organism-based; conditions: dose 5-20 mg/kg, time 79.0 hrs
[23] = system: RAW264.7; test: Antiinflammatory activity in mouse RAW264.7 cells assessed as reduction in LPS-induced TNF-alpha production preincubated with compound for 1 hr followed by LPS-induction and measured after 24 hrs by ELISA analysis relative to control; assay type: functional, cell-based
[24] = system: Mus musculus; test: Antiinflammatory activity in LPS-induced acute lung injury BALB/c mouse model assessed as downregulation of IL-6 level in BALF at 20 mg/kg, po administered for 3 days followed by LPS-induction for 1 hr and measured after 6 hrs by ELISA analysis; assay type: functional, organism-based; conditions: time 79.0 hrs
[25] = system: RAW264.7; test: Antiinflammatory activity in mouse RAW264.7 cells assessed as reduction in LPS-induced NO release preincubated with compound for 1 hr followed by LPS-induction and measured after 24 hrs by ELISA analysis relative to control; assay type: functional, cell-based
[26] = system: RAW264.7; test: Antiinflammatory activity in mouse RAW264.7 cells assessed as reduction in LPS-induced JNK phosphorylation at 6.25 to 25 uM preincubated with compound for 1 hr followed by LPS-induction and measured after 24 hrs by Western blot analysis; assay type: functional, cell-based; conditions: dose 6.25-25 µM, time 25.0 hrs
[27] = system: Mus musculus; test: Antiinflammatory activity in LPS-induced acute lung injury BALB/c mouse model assessed as reduction in cell infiltration in lung at 20 mg/kg, po administered for 3 days followed by LPS-induction for 1 hr and measured after 6 hrs by H and E staining based analysis; assay type: functional, organism-based; conditions: time 79.0 hrs
[28] = system: RAW264.7; test: Anti-inflammatory activity in mouse RAW264.7 cells assessed as inhibition of LPS-induced iNOS […] expression preincubated with compound for 1 hr followed by LPS stimulation and measured after 24 hrs by Western blot analysis; assay type: functional, cell-based; conditions: dose 6.25-25 µM, time 25.0 hrs
[29] = system: RAW264.7; test: Anti-inflammatory activity in mouse RAW264.7 cells assessed as inhibition of LPS-induced iNOS […] expression at 25 uM preincubated with compound for 1 hr followed by LPS stimulation and measured after 24 hrs by Western blot analysis; assay type: functional, cell-based; conditions: time 25.0 hrs
[30] = system: RAW264.7; test: Anti-inflammatory activity in mouse RAW264.7 cells assessed as inhibition of LPS-induced COX-2 […] expression preincubated with compound for 1 hr followed by LPS stimulation and measured after 24 hrs by Western blot analysis; assay type: functional, cell-based; conditions: dose 6.25-25 µM, time 25.0 hrs

inhibition [1]: Active
IC50 [14]: 4.93 µM
inhibition [17]: Active
IC50 [23]: > 25 µM
IC50 [25]: 10.9 µM
SMILES: COc1ccc([C@@H]2OC[C@H]3[C@@H]2CO[C@@H]3c2ccc(O[C@H]3O[C@H](COC(=O)[C@H](Cc4ccccc4)NC(=O)OC(C)(C)C)[C@@H](O)[C@H](O)[C@H]3O)c(OC)c2)cc1OC
Activity [2]: Active
inhibition [3]: Active
Activity [4]: Active
Activity [5]: Active
Activity [6]: Active
Activity [7]: Non-Toxic
Activity [8]: Dose-Dependent Effect
Activity [9]: Dose-Dependent Effect
inhibition [10]: Active
Activity [11]: Active
Activity [12]: Active
inhibition at 25 µM [13]: 91.8%
Activity [15]: Active
Activity [16]: Active
Activity [18]: Active
Activity [19]: inactive
Activity [20]: Active
fold change (FC) [21]: 7.5
Activity [22]: Active
Activity [24]: Active
Activity [26]: Active
Activity [27]: Active
Activity [28]: Dose-Dependent Effect
Activity [29]: Active
Activity [30]: Dose-Dependent Effect

SMILES: COc1ccc(-n2cc(C(=O)OC[C@H]3O[C@H](Oc4ccc([C@H]5OC[C@H]6[C@@H]5CO[C@H]6c5ccc(OC)c(OC)c5)cc4OC)[C@H](O)[C@@H](O)[C@@H]3O)nn2)cc1
Activity [7]: Non-Toxic

SMILES: COc1cccc(C(=O)OC[C@H]2O[C@H](Oc3ccc([C@H]4OC[C@H]5[C@@H]4CO[C@H]5c4ccc(OC)c(OC)c4)cc3OC)[C@H](O)[C@@H](O)[C@@H]2O)c1
Activity [7]: Non-Toxic

SMILES: COc1ccc([C@@H]2OC[C@H]3[C@@H]2CO[C@@H]3c2ccc(O[C@H]3O[C@H](COC(=O)c4cn(-c5ccc(F)cc5)nn4)[C@@H](O)[C@H](O)[C@H]3O)c(OC)c2)cc1OC
Activity [7]: Non-Toxic

SMILES: COc1ccc([C@@H]2OC[C@H]3[C@@H]2CO[C@@H]3c2ccc(O[C@H]3O[C@H](COC(=O)[C@H](CCSC)NC(=O)OC(C)(C)C)[C@@H](O)[C@H](O)[C@H]3O)c(OC)c2)cc1OC
Activity [7]: Non-Toxic

SMILES: COc1ccc([C@H]2OC[C@@H]3[C@H]2CO[C@@H]3c2ccc(O[C@@H]3O[C@@H](COC(=O)c4cnc5ccccc5c4)[C@H](O)[C@@H](O)[C@@H]3O)c(OC)c2)cc1OC (stereo in doubt)
Activity [7]: Non-Toxic

SMILES: COc1ccc([C@H]2OC[C@@H]3[C@H]2CO[C@@H]3c2ccc(O[C@@H]3O[C@@H](COC(=O)c4cccc5ncccc45)[C@H](O)[C@@H](O)[C@@H]3O)c(OC)c2)cc1OC (stereo in doubt)
Activity [7]: Non-Toxic

SMILES: COc1ccc([C@@H]2OC[C@H]3[C@@H]2CO[C@@H]3c2ccc(O[C@H]3O[C@H](COC(=O)c4cn(-c5ccc(Cl)cc5)nn4)[C@@H](O)[C@H](O)[C@H]3O)c(OC)c2)cc1OC
Activity [7]: Non-Toxic
